Assays:
[1] = tested on: NASH mice; assay: Murine model of non-alcoholic steatohepatitis (NASH; STZ and high fat diet); type: in vivo, mouse
Source text: The purpose of this study was to examine the protective effects of endoglin antibodies on a murine model of NASH.
NASH was established by a single subcutaneous injection of STZ (Sigma, USA) after birth and feeding with a high fat diet (HFD; CLEA Japan, Japan) ad libitum after 4 weeks of age (day 28±2).
Randomization of mice into 6 groups of 10 mice was done at 9 weeks of age (day 63±2), the day before the start of treatment.
Group 3 (Positive control; Temlisartan Group): Ten NASH mice were be orally administered pure water supplemented with telmisartan at a dose of 10 mg/kg once daily from day 63 to 84.
Group 4 (Antibody M1043: M1043 Group): Ten NASH mice were intravenously administered vehicle supplemented with Antibody M1043 at a dose of 10 mg/kg twice weekly at day 63, 66, 70, 73, 77 and 80.
Group 5 (Antibody TRC105; TRC105 Group): Ten NASH mice were intravenously administered vehicle supplemented with Antibody TRC105 at a dose of 10 mg/kg twice weekly at day 63, 66, 70, 73, 77 and 80.
Group 6 (Antibody TRC205; TRC205 Group): Ten NASH mice were intravenously administered vehicle supplemented with Antibody TRC205 at a dose of 10 mg/kg twice weekly at days 63, 66, 70, 73, 77 and 80.
Mice in all groups were terminated for the following assays at 12 weeks of age.
H&E staining of liver tissue was conducted to estimate NAFLD Activity score.
Total NAS score represents the sum of scores for steatosis, lobular inflammation, and ballooning, and ranges from 0-8. Diagnosis of NASH (or, alternatively, fatty liver not diagnostic of NASH) should be made first, then NAS is used to grade activity. In the reference study, NAS scores of 0-2 occurred in cases largely considered not diagnostic of NASH, scores of 3-4 were evenly divided among those considered not diagnostic, borderline, or positive for NASH. Scores of 5-8 occurred in cases that were largely considered diagnostic of NASH.
Statistical tests were performed using Bonferroni Multiple Comparison Test. P values<0.05 were considered statistically significant.

[2] = tested on: peripheral blood mononuclear cells (PBMCs); assay: EpiScreen time course T cell proliferation assay with intact anti-endoglin antibodies; type: cell-based, human
Source text: This example describes a method of screening anti-endoglin antibodies for T-cell epitopes. The interaction between MHC, polypeptide and T cell receptor (TCR) provides the structural basis for the antigen specificity of T cell recognition. T cell proliferation assays test the binding of polypeptides processed from antibodies to MHC and the recognition of MHC/polypeptide complexes by the TCR. In vitro T cell proliferation assays of the present example, involve the stimulation of peripheral blood mononuclear cells (PBMCs), containing antigen presenting cells (APCs) and T cells. Stimulation is conducted in vitro using intact anti-endoglin antibodies. Stimulated T cell proliferation is measured using ^3H-thymidine (^3H-Thy) and the presence of incorporated ^3H-Thymidine is assessed using scintillation counting of washed fixed cells.
Anti-endoglin antibodies were purified from the supernatants of mammalian cultures by protein A chromatography. Buffer exchange and protein concentration was done using PBS pH=7.4. Anti-endoglin antibody was further purified by size exclusion chromatography using a Sephacryl S200 column (GE Healthcare, AMersham, UK). The major peak is collected, filter sterilized and shown to have endotoxin levels <5 EU/mg using an Endosafe-PTS (Charles River, Margate, UK). The purified antibodies are stored at 4 degrees Celsius. Final concentrations were determined by UV absorption using calculated molar extinction coefficients, where A280 1.0=1.62 mg/mL. Each antibody was then diluted to 100 μg/mL in AIMV culture medium.
Peripheral Blood Mononuclear cells (PBMC) are isolated from healthy community donor buffy coats (from blood drawn within 24 hours) which are obtained from the UK National Blood Transfusion Service (Addenbrooke's Hospital, Cambridge, UK) according to approval granted by Addenbrooke's Hospital Local Research Ethics Committee. PBMC are isolated from buffy coats by Lymphoprep (Axis-shield, Dundee, Scotland) density centrifugation and CD8+ T cells are depleted using CD8+ RossetteSep™ (StemCell Technologies, Inc.). Donors are characterized by identifying HLA-DR haplotypes using a Biotest HLA SSP-PCR based tissue-typing kit (Biotest, Landsteinerstralβe, […]). T cell responses to a control antigen, Keyhole Limpet Haemocyanin (KLH) (Pierce, Rockford, Ill., USA) are determined for a positive control. PBMC were then frozen and stored in liquid nitrogen until required. When required for use, cells are thawed rapidly in a water bath at 37° C. before transferring to 10 ml pre-warmed AIM V medium.
A cohort of 20 donors is selected to best represent the number and frequency of HLA-DR allotypes expressed in the world population. […]
PBMCs from each donor are thawed, counted and viability assessed. […]

[3] = biological target: T1, human endoglin (Homo sapiens, UniProt P17813); assay: BIAcore (surface plasmon resonance) analysis of anti-endoglin antibody binding; details: antibody captured on protein A chip, 25 degrees Celsius
T1 sequence (P17813 26-658): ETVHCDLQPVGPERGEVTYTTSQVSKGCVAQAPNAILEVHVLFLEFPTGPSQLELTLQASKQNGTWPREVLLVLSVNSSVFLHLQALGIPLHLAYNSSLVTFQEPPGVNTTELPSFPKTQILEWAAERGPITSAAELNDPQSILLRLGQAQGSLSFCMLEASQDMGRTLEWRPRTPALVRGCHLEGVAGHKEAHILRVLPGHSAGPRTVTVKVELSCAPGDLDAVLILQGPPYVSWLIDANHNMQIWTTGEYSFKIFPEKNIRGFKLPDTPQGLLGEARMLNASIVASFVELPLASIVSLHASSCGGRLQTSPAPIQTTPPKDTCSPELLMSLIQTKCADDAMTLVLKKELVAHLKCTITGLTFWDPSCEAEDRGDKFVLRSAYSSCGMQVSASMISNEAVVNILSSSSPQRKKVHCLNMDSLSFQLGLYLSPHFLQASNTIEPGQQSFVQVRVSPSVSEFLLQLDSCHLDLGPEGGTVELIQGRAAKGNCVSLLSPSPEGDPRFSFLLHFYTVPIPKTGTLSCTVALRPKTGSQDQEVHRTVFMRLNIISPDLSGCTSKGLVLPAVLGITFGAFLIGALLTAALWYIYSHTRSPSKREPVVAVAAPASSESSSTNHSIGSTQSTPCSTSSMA
Procedure: Affinity of antibodies can be assessed using, for example, BIAcore analysis using standard protocols. Briefly, protein A is chemically coupled to a BIAcore CM5 chip, with the amount of protein A immobilized corresponding to 2000 RU. Subsequent steps are performed in a running buffer of 10 mM HEPES, 150 mM NaCl, 3 mM EDTA, 0.05% TWEEN, pH=7.4, at 25 degrees Celsius using a 10 Hz data collection rate. Anti-endoglin antibody (10 nM) is captured at a 10 μL/min flow rate by the immobilized protein A on the BIAcore chip: typically, capture times of 20, 40 and 80 seconds allow the capture of antibody densities corresponding to 130 RU, 330 RU and 570 RU, respectively. Start-up cycles are performed using running buffer at a flow rate of 40 μL/min, a contact time of 90 seconds and a dissociation time of 90 seconds. Sample cycles are performed using recombinant endoglin at concentrations ranging from 0 to 40 nM. Endoglin is passed over the BIAcore chip containing captured antibody at a flow rate of 40 μL/min with a contact time of 525 seconds and dissociation time of 2500 seconds. Eight sample cycles are typically performed at each antibody capture density. Regeneration of the chip is accomplished using 10 mM glycine pH=1.7. Data analysis is performed using BIAcore T100 Evaluation Software v1.1 Signals generated using BIAcore chips with different captured antibody densities are compared and data generated in the absence of recombinant endoglin are used to adjust for the intraassay blank signal. For fitting of the data, the Rmax is allowed to float to account for variation in capture levels of each antibody in each cycle. Data from each capture density is fitted simultaneously during analysis of each antibody. BIAcore data are presented in Table 2 for chimeric, humanized and deimmunized anti-endoglin antibodies, including ka (1/Ms), kd (1/s), KD (M) and Chi^2 (RU^2).

[4] = liver gene expression, mean ± SD, Normal-Vehicle 1.0

CCCc1nc2c(C)cc(-c3nc4ccccc4n3C)cc2n1Cc1ccc(-c2ccccc2C(=O)O)cc1 [Telmisartan, telmisartan, reference compound]
Alpha-smooth muscle actin mRNA expression levels compared with the NASH-Vehicle group ([1]; Bonferroni, P<0.05): significantly down-regulated
Liver triglyceride contents compared with the NASH-Vehicle group ([1]; Bonferroni, P<0.05): significant decreases
Macrophage chemoattractant protein-1 mRNA expression levels compared with the NASH-Vehicle group ([1]; Bonferroni, P<0.05): tended to decrease
Mean liver weight compared with the NASH-Vehicle group ([1]; Bonferroni, P<0.05): significant decrease
Mean liver-to-body weight ratio compared with the NASH-Vehicle group ([1]; Bonferroni, P<0.05): significant decreases
NAS compared with the NASH-Vehicle group ([1]; Bonferroni, P<0.05): significant decreases in NAS
Serum alanine aminotransferase (ALT) levels compared with the NASH-Vehicle group ([1]; Bonferroni, P<0.05): tended to decrease
Sirius red-positive area compared with the NASH-Vehicle group ([1]; Bonferroni, P<0.05): significant decrease
F4/80-positive signals and cells in liver compared with the NASH-Vehicle group ([1]; F4/80 immunostaining, macrophage marker): No obvious changes
Alpha-SMA mRNA expression [1, 4]: 0.7 ± 0.3
MCP-1 mRNA expression [1, 4]: 1.5 ± 1.1
TIMP-1 mRNA expression [1, 4]: 5.8 ± 3.7
TNF-α mRNA expression [1, 4]: 3.2 ± 2.3
Liver triglyceride ([1]; mean ± SD): 23.5 ± 10.6 mg/g liver
Serum ALP ([1]; mean ± SD): 444 ± 134 U/L
Serum ALT ([1]; mean ± SD): 29 ± 15 U/L
Serum AST ([1]; mean ± SD): 113 ± 32 U/L
Sirius red-positive area ([1]; mean ± SD, liver sections): 0.67 ± 0.12%
NAS (NAFLD Activity score) ([1]; mean ± SD, range 0-8, 10 mg/kg): 3.3 ± 1.2
Lobular inflammation score 0, number of mice ([1]; score 0 = No Foci): 3
Hepatocyte ballooning score 0, number of mice ([1]; score 0 = None): 1
Steatosis score 1, number of mice ([1]; score 1 = 5-33%): 9
Lobular inflammation score 1, number of mice ([1]; score 1 = <2 foci/200x): 4
Hepatocyte ballooning score 1, number of mice ([1]; score 1 = Few balloon cells): 3
Lobular inflammation score 2, number of mice ([1]; score 2 = 2-4 foci/200x): 2
Hepatocyte ballooning score 2, number of mice ([1]; score 2 = Many cells/prominent ballooning): 5

B1: VK1VH1: humanized anti-endoglin antibody (antibody, V domains shown)
VH: EVQLVESGGGLVKPGGSLRLSCAASGFTFSDAWMDWVRQAPGKGLEWVGEIRSKASNHATYYAESVKGRFTISRDDSKNTLYLQMNSLKTEDTAVYYCTRWRRFFDSWGQGTLVTVSS
VL: DIQMTQSPSSLSASVGDRVTITCRASSSVSYMHWYQQKPGKAPKPWIYATSNLASGVPSRFSGSGSGTDYTLTISSLQPEDFATYYCQQWSSNPLTFGGGTKVEIK
Responding donors, % of the study cohort ([2]; cohort of 20 donors, 50 μg/mL antibody): 10%
Stimulation index (borderline response) ([2]; donor 20): 1.91
Donors with positive T cell proliferation responses ([2]; of 20 donors, 50 μg/mL antibody, SI≥2 (borderline ≥1.90), p<0.05): 2

B2: VK1AAVH1R: humanized/deimmunized anti-endoglin antibody (antibody, V domains shown)
VH: EVQLVESGGGLVKPGGSLRLSCAASGFTFSDAWMDWVRQAPGKGLEWVGEIRSRASNHATYYAESVKGRFTISRDDSKNTLYLQMNSLKTEDTAVYYCTRWRRFFDSWGQGTLVTVSS
VL: DIQMTQSPSSLSASVGDRATITCRASSSVSYMHWYQQKPGKAPKPWAYATSNLASGVPSRFSGSGSGTDYTLTISSLQPEDFATYYCQQWSSNPLTFGGGTKVEIK
ka [3]: 64000 M⁻¹ s⁻¹
kd [3]: 3.41e-05 s⁻¹

B3: VK1AAVH1Q: humanized/deimmunized anti-endoglin antibody (antibody, V domains shown)
VH: EVQLVESGGGLVKPGGSLRLSCAASGFTFSDAWMDWVRQAPGKGLEWVGEIRSQASNHATYYAESVKGRFTISRDDSKNTLYLQMNSLKTEDTAVYYCTRWRRFFDSWGQGTLVTVSS
VL: DIQMTQSPSSLSASVGDRATITCRASSSVSYMHWYQQKPGKAPKPWAYATSNLASGVPSRFSGSGSGTDYTLTISSLQPEDFATYYCQQWSSNPLTFGGGTKVEIK
ka [3]: 35600 M⁻¹ s⁻¹
kd [3]: 3.03e-05 s⁻¹
